The values below come from PubChem BioAssay (NCI).

The structures appear in SMILES notation. “And” between values parts separate entries of the source, which are not always exact repeats. Identical values can stand only once.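 Compound exposure: 48 hours, 5 concentrations, 96-well plates. GI50 = concentration required for 50% inhibition of growth. TGI: total growth inhibition.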

Assay in all cases: NCI tumour cell line growth inhibition, 48 h
Assay [1] deals with DLD-1 colon.
Assay [2] relates to DMS 273 small cell lung.
The test system of assay [3] is HOP-18 NSCLC.
In assay [4] the test system is KM20L2 colon.
Assay [5] deals with LXFL 529 NSCLC.
For assay [6], the system named is RXF-631 renal.
Assay [7] relates to MDA-N.
For assay [8], the system named is XF 498 CNS.
Assay [9] relates to SNB-78 CNS.

On to `COc1ccccc1NC(=O)C1=C(C)NC(C)=C(C(=O)Nc2ccccc2OC)C1c1cccc2c1OCO2`, for which the TGI in assay [1], in assay [2], in assay [3], in assay [4], in assay [5] and in assay [6] was above 100 µM each time.
For `Cc1cc(NC(=O)NC(=O)c2ccccc2NC(=O)CN)ccc1Oc1ncc(Br)cn1`, the TGI in assay [1] is 4.62 µM; in [2], 38.1 µM; in assay [4], 18.6 µM; in [5], 75 µM; in assay [7], 1.1 µM and 0.178 µM; in assay [8], 75 µM. Further, the GI50 in assay [7] was 0.0271 µM.
In turn, `O=C(NC1(C(=O)O)CC1c1ccccc1)c1ccccc1` (centres undefined) yielded a TGI in assay [7] above 100 µM.
For the compound `O=CN1CCN(C=S)CC1`, the TGI in assay [1], in [2], in [4], in assay [5], in assay [6] and in assay [9] was above 100 µM in each case. The same compound had a TGI in assay [8] above 100 µM.
For `CNC(=O)OCc1[nH]ccc2c(C)c3nc4ccc(OC)cc4c3cc12`, the TGI was above 100 µM in [1]; above 100 µM in [2]; 34.1 µM in assay [3]; above 27.5 µM in [4]; above 100 µM in assay [5]; above 100 µM in [9]. This compound had a TGI in assay [8] above 33.8 µM.
In the case of `COc1ccccc1NC(=O)CC(=O)NNCC(=O)Nc1nnc(-c2ccccc2)o1`, the TGI in [1], in assay [2], in assay [4], in assay [5], in assay [6] and in [9] was above 100 µM in each case. This compound came in with a TGI in assay [8] above 100 µM.
In the case of `CCOC(=O)c1cnc2cc3cccccc3n2c1=O`, the TGI in assay [1], in [2], in assay [4], in assay [5] and in assay [9] was above 100 µM in each case.
Regarding `O=C(O)CCCNS(=O)(=O)c1ccc2ccccc2c1`, the TGI in assay [1], in assay [2], in assay [3], in [4], in [5] and in assay [6] was above 100 µM in each case. Moreover, the TGI in assay [8] is above 100 µM.
`CC1(C)N[P+]2(Nc3ccccc3O2)OC1=O` (centres undefined) displayed a TGI in assay [7] of 38.7 µM.
On to `COC(=O)C1=Cc2c(cc(OC)c(OC)c2OC)[C@H](c2ccc(OC)c(OC)c2OC)C1C(=O)OC` (some centres undefined), for which the TGI in assay [1], in [2], in assay [4], in assay [5], in assay [6] and in assay [9] was above 100 µM throughout.
For the compound `COc1ccc2c(c1)CCCC1C3=NCCC3(C)CSC21` (centres undefined), the TGI in assay [2] is above 100 µM; in [3], above 100 µM; in assay [4], 72.7 µM; in assay [5] it was above 100 µM; in assay [9] it was above 100 µM; in [8], above 100 µM.
With `CC1CC2(CCC1OCc1ccccc1)OCCO2` (centres undefined), the TGI in assay [1], in assay [2], in assay [5], in assay [9] and in [8] was above 100 µM each time.
The compound `CC[C@@]1(O)C(=O)OCc2c1cc1n(c2=O)Cc2cc3c(NC(=O)CN)cccc3nc2-1` gave a TGI in assay [7] of 46.7 µM.
For `O=C(O)c1ccc(C2C3C=CC(C3)C2[N+](=O)[O-])cc1` (centres undefined), the TGI in assay [1], in assay [2], in assay [4], in [5], in [6] and in [9] was above 100 µM in each case. Further, in [8], the TGI is above 100 µM.
Regarding `CCOC(=O)[C@H]1Nc2ccc(Cl)cc2[C@H]2c3ccccc3O[C@H]21`, the TGI in assay [1], in [2], in [3], in assay [4], in [5] and in assay [6] was above 100 µM each time. For the same compound, the TGI in [9] and in assay [8] was above 100 µM throughout.
For the compound `Cc1ccc2nc(N/N=C/c3cccc(C)n3)cc(C)c2c1`, in assay [7], the TGI worked out at 32.5 µM.
Regarding `CCOC(=O)C(=O)Nc1ccc(Cl)c(C(F)(F)F)c1`, the TGI in [1], in assay [2], in assay [3], in assay [4], in assay [5] and in [6] was above 100 µM throughout. The compound also displayed a TGI in [9] above 100 µM.
Regarding `NC1=C(Cl)C(=O)c2ccccc2C1=O`, the TGI in assay [1] was determined as 37.9 µM; in assay [2] it was 18.9 µM; in assay [3] it was 22 µM; in assay [4], 28 µM; in [5] it was 25.2 µM; in assay [7], 3.19 µM. For the same compound, the TGI in assay [9] is above 63.3 µM; in assay [8], 24.5 µM.
For `NC(=O)c1c2c(cc3c(=O)c4ccccc4[nH]c13)CCCC2`, the TGI in assay [1], in assay [2], in [3], in [4], in [5] and in assay [6] was above 100 µM throughout. The compound further returned a TGI in [8] above 100 µM.
